Test results reported in patent US20220354998A1, “HYDROGEL-FILLED MICRONEEDLE ARRAYS AND USES THEREOF” (University of Connecticut, priority 2021, published 2022).

How the values were obtained:
[1] = Dual-drug release from multi-length MNA into two-gel skin model; format: physicochemical; settings: 1% alginate, 16 h
Protocol: Evaluation of Dual-Drug Release Capability. For the dual release, MNAs with 4.2 mm long and 2 mm short needles were separately loaded with a 1% (m/v) alginate solution in DPBS containing ˜46 μg/mL of Rh-B, ˜1010 μg/mL of BSA-FITC, or no added analyte. Four combinations of analyte-loaded alginate MNAs were tested: (1) long needles loaded with Rh-B and short needles loaded with BSA-FITC (Rh-B/FITC), (2) long needles loaded with Rh-B and short needles blank (Rh-B/Blank), (3) long needles blank and short needles loaded with BSA-FITC (Blank/FITC), and (4) both lengths blank (Blank/Blank). The gels were crosslinked as previously mentioned and ran in quintuplicate. The needles were inserted into a two-gel skin model that include a 2 mm thick 3% (m/v) low-gelling agarose cast on top of a 3 mm thick 10% (m/v) porcine gelatin in 12 well plates. Both solutions were prepared in PBS. […] The collected gels were melted and the amount of Rh-B and BSA-FITC was quantified using a BioTek Cytation 5 plate reader at an excitation/emission of 546/568 and 495/520 nm, respectively.
An additional release experiment was conducted to evaluate the performance of the MNA at the dual-delivery of drugs. […] Following the release, the gel layers were separated, melted, and read in a plate reader for their Rh-B and BSA-FITC content. […] The measured release results are quantified in FIG. 5C, FIG. 5D, and FIG. 13. […]

[2] = system: Human umbilical vein endothelial cells (HUVECs); assay: In vitro scratch assay on cultured HUVECs; format: cell-based
Protocol: In Vitro Scratch Assay. Human umbilical vein endothelial cells (HUVECs) (Sigma-Aldrich) were cultured in EGM™ Endothelial Cell Growth Medium BulletKit™ (Lonza) complete medium. At their fifth passage, the HUVECs were detached using trypsin-EDTA (0.1% w/v), resuspended in the growth medium, and seeded at a concentration of 50,000 cells per well into a 12-well tissue culture plate that was coated with a thin layer of Geltrex® hESC-Qualified, Ready-To-Use, Reduced Growth Factor Basement Membrane Matrix (Gibco®). The Geltrex® layer was formed by diluting by a factor of 2 in the basal endothelial medium and seeding in empty wells. […]
A scratch was created in the confluent HUVECs by lightly dragging a P200 pipette tip across the bottom of the well. […] The concentration of VEGF in the MNA+VEGF group was calculated so that if total VEGF release occurred, the concentration of VEGF in the well would match the concentration of the positive control (50 ng/mL). […] The area of scratch closure for each time point was calculated using ImageJ (NIH, Bethesda, Md.) and compared for relative area change to 0 h.
The ability of the platform to preserve the bioactivity of encapsulated therapeutics was assessed by loading vascular endothelial growth factor (VEGF), an important angiogenic factor. […] Three different groups were evaluated: MNA−VEGF, MNA+VEGF, and a positive control. […]

Compound: CCN(CC)c1ccc2c(-c3ccccc3C(=O)O)c3ccc(=[N+](CC)CC)cc-3oc2c1.[Cl-] [Rh-B, Rhodamine B]
- Rh-B signal by gel layer ([1]; long needles (4.2 mm)): stronger in the gelatin

Compound: vascular endothelial growth factor [VEGF]
- healing potential (gap closure) ([2]; after 8 h of culture, HUVEC scratch, n=4): cells nearly closed the gap in its entirety
- effect on HUVEC migration ([2]; scratch assay): positive effect

Compound: BSA fluorescein isothiocyanate conjugate [BSA-FITC]
- BSA-FITC signal by gel layer ([1]; short needles (2 mm)): greater BSA-FITC signal in the top, agarose layer
